Laboratory results published in patent US20140336182A1, “Aurora Kinase Modulators and Method of Use” (Amgen Inc., priority 2013, published 2014).
Read-outs that look alike come from different tables or passages of the source.

Key:
HeLa cells = assay: HeLa cell 24 hr ploidy assay (DNA content); format: cell-based; settings: Homo sapiens, HeLa, 4N ploidy, average, read-out: 24h_4NPloidy EC50_IP (uM Avg)
Summary of the method: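 DNA content measured by Hoechst 33342 nuclear staining (0.5 ug/ml, 45 min RT) and high-content imaging of fixed HeLa cells after 24 h compound exposure in 0.25% DMSO. Fractions of 4N and >4N cells fitted to dose curves giving EC50 IP, EC50 transit, Max and Min.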

[1] = Solubility in DMSO (observation in the synthesis); format: physicochemical; settings: DMSO at rt
Method: The reaction was cooled to rt. Hexane was added to induce the product to precipitate out of the reaction mixture. The resulting red solid was filtered with an aid of hexane. LCMS confirmed that the solid was the product. The product was purified by performing a column chromatography on silica gel using 60:40 CH2Cl2:(90:10:1 CH2Cl2:MeOH:NH4OH). Yellow solid was obtained. LCMS confirmed product. […] MS Calcd for […]: [M]=472. Found: [M+H]=473.

[2] = test system: HCT116 xenografts, a human colon carcinoma model; assay: HCT116 xenograft model, tumor growth inhibition; format: in vivo, athymic nude mice; settings: mice, p.o.
Method: Compounds of the present invention were evaluated in HCT116 xenografts, a human colon carcinoma model. […] These cells were grown as subcutaneous xenografts in female HSD (Harlan Sprague Dawley) athymic nude mice. Mice were implanted subcutaneously with 2×10^6 cells in matrigel on day 0. Treatment was initiated on day 10 with compounds of the invention at the indicated dosage p.o for 2 consecutive-days per week (intermittent schedule, such as 2 days on—5 days off) or 7-days (continuous schedule) per week, for a selected number of weeks. For example, in one study, animals were dosed with selected compound samples BID on an intermittent dosing paradigm of two days on and then 5 days off per week, for four weeks (four dosing cycles) at 15, 7.5, and 3.75 mg/kg. Tumor growth inhibition and body weights were measured throughout the study and compared to the vehicle control group. All groups were provided nutritional supplements on a daily basis throughout the study to maintain body weight. Terminal neutrophil counts were taken at the end of this study. Measures were made by ANOVA followed by Scheffe post hoc test using StatView software v5.0.1.
10 Flasks containing a total of 7.68×10^8 HCT 116 tumor cells were harvested for tumor cell implantation. HCT 116 cells were re-suspended to a cell concentration of about 2×10^7 cells/ml in serum-free McCoys 5A media+50% matrigel. Cell viability was measured to be about 99.3%.
Female Athymic Nude mice approximately 14 weeks of age (Harlan Sprague Dawley) were used for the experiment. […] On Day 9, tumor-bearing mice were measured and randomized into five groups (n=10). […] During the dosing period, mouse tumor volumes were measured with a digital caliper and weighed twice per week. Tumor volumes were calculated as follows: Tumor Volume (mm^3)=[(W^2 X L)/2] where width (W) is defined as the smaller of the 2 measurements and length (L) is defined as the larger of the 2 measurements.

Row | EC50 (HeLa cells) | EC50 (HeLa cells; HeLa cells) | Compound | other results
1 | 0.326 µM | – | COc1cnc2c(Nc3cnc(Nc4nnc(-c5ccccc5)c5ccccc45)nc3)ccnc2c1 [Example 36, N^5-(7-Methoxy-1,5-naphthyridin-4-yl)-N^2-(4-phenylphthalazin-1-yl)pyrimidine-2,5-diamine] | solubility in DMSO [1]: slightly soluble
2 | – | 0.005 µM | COc1cnc2c(Sc3ccc(Nc4nnc(-c5ccccc5)c5ccccc45)cc3)ccnc2c1 [Example 207, N-(4-((7-(methyloxy)-1,5-naphthyridin-4-yl)thio)phenyl)-4-phenyl-1-phthalazinamine] | inhibition of tumor growth ([2]; 5.0 mg/kg 2-day dosing scheduling QD): 67%
3 | 0.005 µM | – | COc1cnc2c(Oc3ccc(Nc4nnc(-c5ccc(Cl)cc5)c5ccccc45)cc3)ccnc2c1 [Example 160, 4-(4-chlorophenyl)-N-(4-((7-(methyloxy)-1,5-naphthyridin-4-yl)oxy)phenyl)-1-phthalazinamine] | inhibition of tumor growth ([2]; 3.75 mg/kg 2-day dosing scheduling QD): 86%
4 | – | 0.006 µM | COc1cnc2c(Oc3ccc(Nc4nnc(-c5ccc6c(c5)OCO6)c5ccccc45)cc3)ccnc2c1 [Example 165, 4-(1,3-benzodioxol-5-yl)-N-(4-((7-(methyloxy)-1,5-naphthyridin-4-yl)oxy)phenyl)-1-phthalazinamine] | inhibition of tumor growth ([2]; 2.5 mg/kg 2-day dosing scheduling BID): 63%
